The target of this test is T1, Tyrosine-protein kinase receptor UFO (Homo sapiens, UniProt P30530).
T1 sequence (P30530 whole entry): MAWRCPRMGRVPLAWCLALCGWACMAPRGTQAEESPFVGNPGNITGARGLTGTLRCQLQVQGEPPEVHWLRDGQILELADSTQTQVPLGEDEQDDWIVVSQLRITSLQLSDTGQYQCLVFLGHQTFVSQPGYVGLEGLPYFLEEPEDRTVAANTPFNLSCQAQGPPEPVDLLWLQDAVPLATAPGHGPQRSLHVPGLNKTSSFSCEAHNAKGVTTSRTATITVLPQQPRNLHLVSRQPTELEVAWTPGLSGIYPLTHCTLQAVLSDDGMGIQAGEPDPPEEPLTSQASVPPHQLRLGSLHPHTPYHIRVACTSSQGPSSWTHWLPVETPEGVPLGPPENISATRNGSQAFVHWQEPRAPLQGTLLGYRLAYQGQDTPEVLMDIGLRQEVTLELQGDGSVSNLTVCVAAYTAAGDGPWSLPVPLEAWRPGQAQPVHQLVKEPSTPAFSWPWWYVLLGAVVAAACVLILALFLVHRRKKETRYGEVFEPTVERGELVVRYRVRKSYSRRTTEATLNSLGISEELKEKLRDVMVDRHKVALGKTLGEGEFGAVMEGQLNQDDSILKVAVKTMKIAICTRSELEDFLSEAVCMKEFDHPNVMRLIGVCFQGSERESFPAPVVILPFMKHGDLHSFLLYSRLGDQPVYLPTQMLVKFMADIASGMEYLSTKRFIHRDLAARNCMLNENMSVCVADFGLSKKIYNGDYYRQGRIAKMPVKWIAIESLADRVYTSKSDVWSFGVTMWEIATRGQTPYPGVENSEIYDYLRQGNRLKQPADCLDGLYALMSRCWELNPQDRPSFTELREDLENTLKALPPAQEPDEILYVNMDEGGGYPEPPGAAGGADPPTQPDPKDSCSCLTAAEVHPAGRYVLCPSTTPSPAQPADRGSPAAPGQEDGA
The test is described as follows: Inhibition of AXL (unknown origin).

For the compound `COc1cc2ncnc(Oc3ccc(NC(=O)c4c5n(n(-c6ccccc6)c4=O)CCCC5)cc3)c2cc1OC`, the IC50 was determined as 0.044 µM.
